{
  "source": "ChEMBL document CHEMBL1146781",
  "about": "“Structural differences between paroxetine and femoxetine responsible for differential inhibition of Staphylococcus aureus efflux pumps” (2004)",
  "key": {"Staphylococcus aureus [1]": {"tested_on": "Staphylococcus aureus", "test": "Concentration required to reduce Minimum inhibitory concentration (MIC) of Norfloxacin against Staphylococcus aureus 1199B by 4 folds", "assay_type": "functional, organism-based"}, "Staphylococcus aureus [2]": {"tested_on": "Staphylococcus aureus", "test": "Minimum inhibitory concentration (MIC) against Staphylococcus aureus K2068; Range 12.5 1.6 ug/mL", "assay_type": "functional"}, "Staphylococcus aureus [3]": {"tested_on": "Staphylococcus aureus", "test": "Minimum inhibitory concentration (MIC) against Staphylococcus aureus 1199B; Range 50 - 6.3 ug/mL", "assay_type": "functional"}, "Staphylococcus aureus [4]": {"tested_on": "Staphylococcus aureus", "test": "Concentration required to reduce Minimum inhibitory concentration (MIC) of Norfloxacin against Staphylococcus aureus 1199B by 8 folds", "assay_type": "functional, organism-based"}, "Staphylococcus aureus [5]": {"tested_on": "Staphylococcus aureus", "test": "Percent inhibition of EtBr efflux against Staphylococcus aureus 1199B at 50 concentration", "assay_type": "functional"}},
  "data": [
    {"smiles": "COC(=O)[C@H]1[C@H]2C[C@@H]3c4[nH]c5cc(OC)ccc5c4CCN3C[C@H]2C[C@@H](OC(=O)c2cc(OC)c(OC)c(OC)c2)[C@@H]1OC", "values": [
      {"measurement": "Concentration", "setting": "Staphylococcus aureus [1]", "value": 20, "unit": "µg/mL"}
    ]},
    {"smiles": "CCn1cc(C(=O)O)c(=O)c2cc(F)c(N3CCNCC3)cc21", "note": "[NORFLOXACIN]", "values": [
      {"measurement": "MIC", "setting": "Staphylococcus aureus [2]", "value": 12.5, "unit": "µg/mL"},
      {"measurement": "MIC", "setting": "Staphylococcus aureus [3]", "value": 50, "unit": "µg/mL"}
    ]},
    {"smiles": "Fc1ccc([C@H]2CCNC[C@@H]2COc2ccc3c(c2)OCO3)cc1", "values": [
      {"measurement": "Concentration", "setting": "Staphylococcus aureus [4]", "value": 20, "unit": "µg/mL"}
    ]},
    {"smiles": "CN1CC[C@@H](c2ccc(F)cc2)[C@H](COc2ccc3c(c2)OCO3)C1", "values": [
      {"measurement": "Inhibition", "setting": "Staphylococcus aureus [5]", "value": "~50", "unit": "%"}
    ]},
    {"smiles": "Fc1ccc([C@@H]2CCNC[C@H]2COc2ccc3c(c2)OCO3)cc1", "values": [
      {"measurement": "Concentration", "setting": "Staphylococcus aureus [4]", "value": 25, "unit": "µg/mL"}
    ]}
  ]
}
